These results are taken from US10753947B2, “Methods for screening voltage-gated proteins” (D.E. Shaw Research, LLC, priority 2012, dated 2020).

Broadly, the IC50 is the concentration that gives 50% inhibition.

Changes are numbered by the printed parent chain. Read-outs that look alike come from different tables or passages of the source.

Test [1] has as its target T1, Shaker R362S with alpha pore open (R1S) (Drosophila melanogaster, UniProt P08510, DUP563-563/L584V/Q583H/R362S).
T1 construct: expressed in transfected cells; host or cells: Xenopus oocytes injected with cRNA (vector pBSTA)
The test can be described thus: Omega currents (Iω) of Shaker R1S in Xenopus oocytes, two electrode voltage-clamp. It counts as cell-based. To be noted: 30, 100 and 300 μM La3+; test pulses +60 mV to -300 mV, holding -50 mV. From the text: (§1) The coding cDNAs of Shaker “wild-type” (hereinafter WT) base construct (Shaker H4, with intact inactivation), Shaker R362S with alpha pore open (hereinafter R1S) and Shaker with the alpha pore closed by mutation W434F (herein after R1S/W434F) were cloned into a high expression vector pBSTA. The C-terminus of all constructs was tagged with eGFP. Transcripted cRNA was produced using the mMessage mMachine kit (Ambion Inc.).
(§2) Two to four days past injection of cRNA into stage V-VI Xenopus oocytes (NASCO), omega currents (Iω) and currents through the alpha pore (Iα) were recorded with the two electrode voltage-clamp technique making use of a TURBO TEC-05× amplifier (npi electronic GmbH). Currents were filtered at 10 kHz and sampled at 20 kHz. The bath solution contained (in mM): NaCl 96, KCl 2, CaCl2 1, MgCl2 1 and HEPES 5 (pH 7.5). Voltage-recording and current-injecting microelectrodes were filled with 3 M KCl and pulled to have resistances between 0.2 and 1 MΩ (see Stork et al., 2007). The pClamp software package v.10.1 (Molecular Devices, Inc.) was used for data acquisition and analysis.
(§3) Pulses (20 ms) from +60 to ˜300 mV were applied in 20 mV steps at 1 Hz from a holding potential of either −80 mV (WT, R1S/W434F) or ˜50 mV (R1S) (see FIG. 34B) to measure omega currents (Iω) without leak subtraction. […]

In test [2] the target is T2, Shaker R1S/W434F (alpha pore closed) (Drosophila melanogaster, UniProt P08510, DUP563-563/L584V/Q583H/R362S/W434F).
T2 construct: expressed in transfected cells; host or cells: Xenopus oocytes injected with cRNA (vector pBSTA)
The test can be described thus: Omega currents (Iω) of Shaker R1S/W434F in Xenopus oocytes, two electrode voltage-clamp. It counts as cell-based. To be noted: 100 μM La3+, steps from -80 mV to -200 mV, 20 ms pulses at 1 Hz.
Description: as §1, §2, §3
A general note: Two-electrode voltage clamp is typically applied to oocytes expressing channels or transporters.

Test [3] deals with Kv2.1 R293S/R294S/R300S (R-1S/R0S/R2S). As to the kind of experiment: Omega currents (Iω) of Kv2.1 R-1S/R0S/R2S in Xenopus oocytes, two electrode voltage-clamp. Format: cell-based, human.
Description: The coding cDNAs of KV2.1 “wild-type” (hereinafter WT) base construct (hKv2.1-m7-c3 is human Kv2.1, residues 1-858, mutated to confer AgTx2 sensitivity and to remove extracellular cysteine residues) was synthesized (Entelchon GmbH) and cloned into the high expression vector pBSTA.
Mutations Kv2.1 R294N (hereinafter R0N), Kv2.1 R300S (hereinafter R2S), Kv2.1 R294C/R300S (hereinafter R0C/R2S), Kv2.1 R293S/R294S (hereinafter R-1S/R0S), Kv2.1 R293S/R294C (hereinafter R-1S/R0C), Kv2.1 R293S/R294S/R300S (hereinafter R-1S/R0S/R2S), Kv2.1 R293S/R294C/R300S (hereinafter R-1S/R0C/R2S) were introduced using the QuikChange® Lightning Site-Directed Mutagenesis Kit (Stratagene) with mutagenic primers according to the manufacturer's instructions. All constructs were checked by restriction site mapping and sequencing.
as §2, with “Transcripted cRNA was produced using the mMessage mMachine kit (Ambion Inc.). Two” for “Two”, “(NASCO) potassium” for “(NASCO), omega currents (Iω) and”
Recording of alpha currents (Iα): Pulses of 100 ms were applied from ˜60 to +60 mV in 10 mV steps at 1 Hz from a holding potential of ˜80 mV to the Kv2.1 channel constructs to measure alpha currents (Iα). Passive leak currents were subtracted online using a P/4 procedure: pClamp software generates a series of scaled-down replica sweeps of the main stimulus waveform. […] The cell's response to the subsweeps is used to calculate the degree of passive cellular current leak. This is then subtracted from acquired data on the associated input signal. Recording of omega currents (Iω): Pulses of 10 ms were applied from a holding potential of ˜80 to ˜300 mV in 20 mV steps at 0.3 Hz to the Kv2.1 channel constructs. Iω were recorded without leak subtraction.
AgTx2 (Sigma Aldrich) was reconstituted according to manufacturer's instructions with 10 mM Tris, pH 7.5, containing 100 mM sodium chloride, 0.1% bovine serum albumin, and 1 mM EDTA. LaCl3 was from Sigma Aldrich; MTSEA, MTSES and MTSET were from Biotium.
La^3+, AgTx2, MTSEA, MTSES and MTSET and were applied to Xenopus oocytes by means of a fast perfusion technique (ScreeningTool as described by Baburin et al., 2006). Origin software v.7.0 (OriginLab Corp.) was employed for data analysis. Inhibition of inward currents was defined as 1−Iω,drug/Iω,control, where Iω,drug is the current response in the presence of a given concentration of lanthanum (La^3+) and Iω, control is the control current through the omega pore. The concentration-inhibition curve was fitted using the Hill equation: Iω,drug/Iω,control=A+[…] where IC50 is the concentration at which Iω inhibition is half-maximal, C is the applied La^3+ concentration, A is the fraction of Iω current that blocked and nH is the Hill coefficient. Data are given as mean±SE (n=number of experiments).

The target in test [4] is Kv1.1 (Homo sapiens, UniProt Q09470). To be noted: cited from earlier work.
For test [5], the target named is Kv1.2 (Homo sapiens, UniProt P16389). To be noted: cited from earlier work.
In test [6] the target is Kv1.5 (Homo sapiens, UniProt P22460). To be noted: Table 4; cited from earlier work.
Test [7] has as its target KCa3.1 (Homo sapiens, UniProt O15554). The following applies: Table 4; cited from earlier work.
The target of test [8] is Kv1.6 (Homo sapiens, UniProt P17658). The following applies: Table 4; read-out: IC50 Others: Kv1.6; cited from earlier work.
Test [9] deals with Kv1.4 (Homo sapiens, UniProt P22459). To be noted: Table 4; read-out: IC50 Others: Kv1.4; cited from earlier work.
In test [10] the target is Kv1.3 (Homo sapiens, UniProt P22001). The following applies: cited from earlier work.
The target of test [11] is Shaker (Drosophila melanogaster, UniProt P08510, DUP563-563/L584V/Q583H). The following applies: Table 5, cited from earlier work.
The target in test [12] is T3, Kv2.1 (Homo sapiens, UniProt Q14721).
T3 sequence (Q14721 1-858): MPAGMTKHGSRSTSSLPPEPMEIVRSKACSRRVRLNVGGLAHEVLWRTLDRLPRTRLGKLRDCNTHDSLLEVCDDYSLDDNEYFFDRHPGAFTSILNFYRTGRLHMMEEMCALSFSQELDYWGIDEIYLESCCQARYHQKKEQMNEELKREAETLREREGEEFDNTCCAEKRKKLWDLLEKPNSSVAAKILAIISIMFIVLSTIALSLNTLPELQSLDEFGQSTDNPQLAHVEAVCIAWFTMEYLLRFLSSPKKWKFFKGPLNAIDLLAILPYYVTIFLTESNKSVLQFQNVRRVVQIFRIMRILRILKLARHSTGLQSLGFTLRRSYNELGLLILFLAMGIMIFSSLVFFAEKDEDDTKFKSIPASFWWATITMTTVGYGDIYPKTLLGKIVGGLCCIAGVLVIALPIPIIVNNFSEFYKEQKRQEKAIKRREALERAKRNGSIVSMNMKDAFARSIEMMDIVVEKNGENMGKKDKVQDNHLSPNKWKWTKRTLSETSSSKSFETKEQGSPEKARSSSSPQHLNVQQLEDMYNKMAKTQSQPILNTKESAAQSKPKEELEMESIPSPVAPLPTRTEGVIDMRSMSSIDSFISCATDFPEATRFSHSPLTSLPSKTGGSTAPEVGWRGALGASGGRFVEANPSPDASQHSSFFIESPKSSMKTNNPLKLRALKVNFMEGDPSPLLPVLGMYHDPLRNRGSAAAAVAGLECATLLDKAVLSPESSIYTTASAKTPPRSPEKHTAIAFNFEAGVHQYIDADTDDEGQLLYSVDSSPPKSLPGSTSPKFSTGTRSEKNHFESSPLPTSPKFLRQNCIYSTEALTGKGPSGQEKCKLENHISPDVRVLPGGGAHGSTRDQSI
To be noted: Table 5; read-out: IC50, channel Kv2.1; cited from earlier work.

The target of test [13] is T4, Kv2.1 T359S K360G A366D S367A I383M Y384T K386V (Homo sapiens, UniProt Q14721, A366D/I383M/K360G/K386V/S367A/T359S/Y384T).
T4 sequence (Q14721 1-858 T359S/K360G/A366D/S367A/I383M/Y384T/K386V): T3 sequence (Q14721 1-858) with T359S, K360G, A366D, S367A, I383M, Y384T, K386V
To be noted: Table 5; read-out: IC50, channel Kv2.1 T359S K360G A366D S367A I383M Y384T K386V; cited from earlier work.

The mark [14] stands for this setting: Table 5, read-out: IC50, channel Kv1.3.
The mark [15] stands for this setting: Table 5, read-out: IC50, channel Kv1.1.
Where [16] appears, read: Table 5, read-out: IC50, channel Kv1.2.

Sequence of Kv1.1 (Q09470 whole entry): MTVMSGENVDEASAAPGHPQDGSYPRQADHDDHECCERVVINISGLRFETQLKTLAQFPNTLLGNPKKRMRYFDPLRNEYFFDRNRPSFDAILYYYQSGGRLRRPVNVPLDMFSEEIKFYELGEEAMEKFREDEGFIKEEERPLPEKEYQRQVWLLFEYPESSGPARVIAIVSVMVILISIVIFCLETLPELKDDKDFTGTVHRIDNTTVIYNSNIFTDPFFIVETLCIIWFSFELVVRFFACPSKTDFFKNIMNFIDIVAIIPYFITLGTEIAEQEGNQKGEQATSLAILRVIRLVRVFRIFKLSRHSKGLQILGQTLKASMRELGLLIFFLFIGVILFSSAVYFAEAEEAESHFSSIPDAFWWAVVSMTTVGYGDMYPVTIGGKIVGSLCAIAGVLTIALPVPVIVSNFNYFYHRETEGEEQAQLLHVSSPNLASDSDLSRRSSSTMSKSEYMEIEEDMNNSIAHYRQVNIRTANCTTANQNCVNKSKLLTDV
Sequence of Kv1.3 (P22001 whole entry): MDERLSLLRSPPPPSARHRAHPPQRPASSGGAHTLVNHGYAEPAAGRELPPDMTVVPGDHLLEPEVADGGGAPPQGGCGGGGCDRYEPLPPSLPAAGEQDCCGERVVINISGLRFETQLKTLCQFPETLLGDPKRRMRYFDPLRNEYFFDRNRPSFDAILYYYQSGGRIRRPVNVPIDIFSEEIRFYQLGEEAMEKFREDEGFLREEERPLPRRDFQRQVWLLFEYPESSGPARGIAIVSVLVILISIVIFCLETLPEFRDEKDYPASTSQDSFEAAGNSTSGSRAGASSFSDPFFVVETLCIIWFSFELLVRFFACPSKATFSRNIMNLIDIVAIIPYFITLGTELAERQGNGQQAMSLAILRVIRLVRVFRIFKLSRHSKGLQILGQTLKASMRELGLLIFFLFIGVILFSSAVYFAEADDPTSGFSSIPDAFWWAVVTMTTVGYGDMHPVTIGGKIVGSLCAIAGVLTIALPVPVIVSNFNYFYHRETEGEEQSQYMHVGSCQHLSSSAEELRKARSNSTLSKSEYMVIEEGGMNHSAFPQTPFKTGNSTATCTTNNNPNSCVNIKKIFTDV
Sequence of Kv1.2 (P16389 whole entry): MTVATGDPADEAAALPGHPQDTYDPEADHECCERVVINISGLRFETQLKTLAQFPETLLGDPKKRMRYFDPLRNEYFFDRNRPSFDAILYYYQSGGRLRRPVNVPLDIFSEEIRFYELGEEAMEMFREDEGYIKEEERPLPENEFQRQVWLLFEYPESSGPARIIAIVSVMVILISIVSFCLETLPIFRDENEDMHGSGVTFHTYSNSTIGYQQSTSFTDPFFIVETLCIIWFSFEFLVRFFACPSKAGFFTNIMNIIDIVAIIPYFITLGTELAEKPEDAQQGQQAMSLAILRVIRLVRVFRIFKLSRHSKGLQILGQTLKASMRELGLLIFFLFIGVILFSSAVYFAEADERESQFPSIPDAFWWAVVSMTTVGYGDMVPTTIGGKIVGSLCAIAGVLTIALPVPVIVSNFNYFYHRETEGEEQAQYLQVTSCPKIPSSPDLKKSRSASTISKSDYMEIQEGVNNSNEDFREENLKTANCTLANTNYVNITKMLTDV
T2 sequence (P08510 with tags, fused parts or gaps R362S/W434F/DUP563-563/Q583H/L584V): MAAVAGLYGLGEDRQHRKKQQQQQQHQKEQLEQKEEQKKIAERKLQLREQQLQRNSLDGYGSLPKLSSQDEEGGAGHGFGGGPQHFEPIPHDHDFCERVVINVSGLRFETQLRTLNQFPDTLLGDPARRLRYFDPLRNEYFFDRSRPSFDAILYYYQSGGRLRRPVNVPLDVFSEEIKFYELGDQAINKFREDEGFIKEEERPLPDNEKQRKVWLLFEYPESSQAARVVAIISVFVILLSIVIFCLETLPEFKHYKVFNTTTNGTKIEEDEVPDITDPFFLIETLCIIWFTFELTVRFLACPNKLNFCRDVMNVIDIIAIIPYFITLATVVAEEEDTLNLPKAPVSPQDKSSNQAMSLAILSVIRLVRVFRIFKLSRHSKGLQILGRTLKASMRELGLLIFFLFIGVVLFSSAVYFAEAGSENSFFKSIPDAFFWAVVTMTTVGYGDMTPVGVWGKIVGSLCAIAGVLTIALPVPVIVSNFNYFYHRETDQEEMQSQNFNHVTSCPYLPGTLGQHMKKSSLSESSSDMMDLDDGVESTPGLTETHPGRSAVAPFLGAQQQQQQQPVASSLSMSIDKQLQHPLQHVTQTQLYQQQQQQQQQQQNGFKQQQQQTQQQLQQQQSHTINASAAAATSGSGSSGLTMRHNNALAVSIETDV
T1 sequence (P08510 with tags, fused parts or gaps R362S/DUP563-563/Q583H/L584V): as the sequence (P08510 with tags, fused parts or gaps R362S/W434F/DUP563-563/Q583H/L584V) above, with F434W counted along it
Sequence of Shaker (P08510 with tags, fused parts or gaps DUP563-563/Q583H/L584V): as the sequence (P08510 with tags, fused parts or gaps R362S/W434F/DUP563-563/Q583H/L584V) above, with S362R, F434W counted along it
Sequence of Kv1.6 (P17658 whole entry): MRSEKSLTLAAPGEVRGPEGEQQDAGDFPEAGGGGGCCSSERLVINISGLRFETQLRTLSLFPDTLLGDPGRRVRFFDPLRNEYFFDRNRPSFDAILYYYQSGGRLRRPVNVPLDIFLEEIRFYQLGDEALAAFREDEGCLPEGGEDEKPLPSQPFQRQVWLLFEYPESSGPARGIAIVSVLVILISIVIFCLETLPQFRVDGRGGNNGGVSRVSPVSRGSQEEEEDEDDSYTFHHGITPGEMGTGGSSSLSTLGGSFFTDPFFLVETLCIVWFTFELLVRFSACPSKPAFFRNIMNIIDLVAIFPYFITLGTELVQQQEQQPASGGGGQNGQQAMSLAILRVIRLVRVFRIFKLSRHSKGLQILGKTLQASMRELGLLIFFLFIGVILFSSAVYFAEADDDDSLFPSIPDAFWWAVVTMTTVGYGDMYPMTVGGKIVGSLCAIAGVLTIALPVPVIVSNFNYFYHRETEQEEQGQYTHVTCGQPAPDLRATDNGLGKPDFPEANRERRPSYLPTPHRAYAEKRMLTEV
Sequence of Kv1.4 (P22459 whole entry): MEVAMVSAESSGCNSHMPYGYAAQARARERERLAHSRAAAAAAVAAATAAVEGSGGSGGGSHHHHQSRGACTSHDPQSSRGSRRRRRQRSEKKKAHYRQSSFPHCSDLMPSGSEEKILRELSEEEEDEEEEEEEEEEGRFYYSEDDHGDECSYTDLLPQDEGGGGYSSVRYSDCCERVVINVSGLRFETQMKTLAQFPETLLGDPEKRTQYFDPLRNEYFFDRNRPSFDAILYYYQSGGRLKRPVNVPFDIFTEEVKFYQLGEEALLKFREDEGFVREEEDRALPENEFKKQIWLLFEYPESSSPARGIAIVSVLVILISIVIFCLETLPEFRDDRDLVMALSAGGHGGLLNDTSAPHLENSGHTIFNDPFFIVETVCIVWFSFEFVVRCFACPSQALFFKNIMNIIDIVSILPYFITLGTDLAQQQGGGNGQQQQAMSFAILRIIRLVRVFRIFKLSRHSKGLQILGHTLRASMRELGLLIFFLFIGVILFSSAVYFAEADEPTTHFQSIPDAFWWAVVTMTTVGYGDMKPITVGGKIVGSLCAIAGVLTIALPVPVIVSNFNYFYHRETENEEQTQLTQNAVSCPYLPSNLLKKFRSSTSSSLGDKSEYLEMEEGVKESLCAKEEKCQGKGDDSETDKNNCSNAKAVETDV
Sequence of KCa3.1 (O15554 whole entry): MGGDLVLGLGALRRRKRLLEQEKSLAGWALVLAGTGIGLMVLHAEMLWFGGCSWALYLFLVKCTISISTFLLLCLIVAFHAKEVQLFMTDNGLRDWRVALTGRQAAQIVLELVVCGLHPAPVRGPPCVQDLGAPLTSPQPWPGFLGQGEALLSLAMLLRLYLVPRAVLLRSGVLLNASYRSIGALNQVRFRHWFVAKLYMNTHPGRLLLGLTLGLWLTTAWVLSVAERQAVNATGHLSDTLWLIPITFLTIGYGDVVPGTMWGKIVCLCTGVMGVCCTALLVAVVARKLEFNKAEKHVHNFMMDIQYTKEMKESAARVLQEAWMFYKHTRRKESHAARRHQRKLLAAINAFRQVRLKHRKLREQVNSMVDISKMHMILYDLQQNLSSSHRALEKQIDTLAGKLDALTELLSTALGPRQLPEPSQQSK
Sequence of Kv1.5 (P22460 whole entry): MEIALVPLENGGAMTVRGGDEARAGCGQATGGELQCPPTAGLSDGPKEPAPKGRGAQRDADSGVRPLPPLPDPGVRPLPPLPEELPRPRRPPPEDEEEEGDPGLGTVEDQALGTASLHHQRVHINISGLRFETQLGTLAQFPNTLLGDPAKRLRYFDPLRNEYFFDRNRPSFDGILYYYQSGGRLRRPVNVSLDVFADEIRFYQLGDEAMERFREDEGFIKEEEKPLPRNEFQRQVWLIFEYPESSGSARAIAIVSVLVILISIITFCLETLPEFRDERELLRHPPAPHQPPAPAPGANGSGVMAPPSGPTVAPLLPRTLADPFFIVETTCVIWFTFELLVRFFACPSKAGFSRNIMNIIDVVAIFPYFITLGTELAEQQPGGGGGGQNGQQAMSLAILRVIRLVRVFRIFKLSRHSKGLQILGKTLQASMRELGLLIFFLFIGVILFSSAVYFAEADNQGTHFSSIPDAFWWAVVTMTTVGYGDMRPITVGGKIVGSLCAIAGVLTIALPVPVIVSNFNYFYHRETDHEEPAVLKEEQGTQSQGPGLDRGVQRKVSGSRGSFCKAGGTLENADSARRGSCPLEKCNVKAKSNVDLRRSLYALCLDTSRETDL

Turning to `O.O.O.O.O.O.O.[Cl-].[Cl-].[Cl-].[La+3]` [La3+, Lanthanum(III) chloride heptahydrate], the “Block of omega current (Iω) of R1S Shaker” value in test [1] was “blocked in a concentration-dependent manner”. Besides, in test [2], the “Block of Iω during the first pulse” value came to 31.8±3.6%. Further, in test [2] (5 oocytes), the “Block of omega currents at steady state” value came to 51.5±5.9%. Moreover, the “Block of inward currents at negative potentials (Iω)” value in test [3] (30 μM to 10 mM La3+) is “blocked”. Also, the “Hill coefficient nH” value in test [3] (inward currents after 5 ms at -300 mV, Hill fit) is on record as 0.8±0.1.

In the case of `O=c1ccc2c(OCCCCOc3ccccc3)c3ccoc3cc2o1` [PAP-1], the 50% inhibitory concentration (IC50) was 0.065 µM in [4] (Table 4, read-out: IC50 Kv1.1); 0.25 µM in [5] (Table 4, read-out: IC50 Kv1.2); 0.045 µM in [6]; 10 µM in test [7]; 31 µM in test [8]; 0.17 µM in [9].

For the molecule `O=c1ccc2c(OCCCCc3ccccc3)c3ccoc3cc2o1` [Psora-4], the IC50 in test [8] is 0.062 µM.

In the case of Charybdotoxin [Charybdotoxin (ChTX)], the half-inhibitory concentration (IC50) in test [10] (Table 3, read-out: IC50 Values of Kv1.3 ion channel modulating agent) was 0.00019 µM; in test [10] (setting [14]), 0.00019 µM; in test [4] (setting [15]) it was 1.5 µM; in test [5] (setting [16]), 0.014 µM; in [11] (read-out: IC50, channel Shaker) it was 0.227 µM; in test [12] it was over 2 µM.

Consider hanatoxin [HaTx], for which the half-inhibitory concentration (IC50) in test [10] (setting [14]) was over 0.5 µM; in test [4] (setting [15]), over 0.5 µM; in test [5] (setting [16]), over 2 µM; in [12], 0.107 µM; in test [13], 0.102 µM. The “IC50, channel Shaker” value in test [11] (result in words) is on record as “Weak”.
